# Measured values from US7304093B2, “Ketone compounds and compositions for cholesterol management and related uses” (Esperion Therapeutics, Inc., priority 2000, dated 2007).
# Where two headings read alike, the source gives them in different places. Marks after values point to notes of the source that are not given here.
# Test system: female obese Zucker rats
# Test: Serum lipid and glycemic control variables in chow-fed obese female Zucker rats, daily oral gavage for two weeks
# Type: in vivo, rat
# Settings: for change in vivo at 100 mg/kg: Rattus norvegicus, Table 9; for Glucose / HDL-C / NEFA / Non-HDL-C / TG / Insulin: serum, mean ± SEM; for Insulin: Table 12
# Outline: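 Female obese Zucker fa rats, 10–12 wk, 400–500 g, chow-fed, dosed daily by oral gavage for 14 days in CMC/Tween 20 or ethanol/PEG-200 vehicle. After a 6-h fast, serum was sampled pre-dose, day 7 and day 14. Triglycerides, total cholesterol, NEFA and β-hydroxybutyrate were measured, plus lipoprotein cholesterol by gel-filtration profiling.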
smiles,measurement,setting,value
"CC(C)(CCCCCC(=O)CCCCCC(C)(C)C(=O)O)C(=O)O [Compound 210g, 2,2,14,14-Tetramethyl-8-oxopentadecanedioic acid]","NEFA, percent increase (+) or decrease (−) of the pretreatment control value","3 mg/kg daily oral, 1 wk",(−15) percent
same,"Glucose, percent increase (+) or decrease (−) of the pretreatment control value","3 mg/kg daily oral, 2 wk",(+108) percent
same,"NEFA, percent increase (+) or decrease (−) of the pretreatment control value","3 mg/kg daily oral, 2 wk",(−23) percent
same,"HDL-C, percent increase (+) or decrease (−) of the pretreatment control value","10 mg/kg daily oral, 1 wk",(+158) percent
same,"NEFA, percent increase (+) or decrease (−) of the pretreatment control value","10 mg/kg daily oral, 1 wk",(−17) percent
same,"TG, percent increase (+) or decrease (−) of the pretreatment control value","10 mg/kg daily oral, 1 wk",(−36) percent
same,"HDL-C, percent increase (+) or decrease (−) of the pretreatment control value","10 mg/kg daily oral, 2 wk",(+160) percent
same,"NEFA, percent increase (+) or decrease (−) of the pretreatment control value","10 mg/kg daily oral, 2 wk",(−21) percent
same,"Non-HDL-C, percent increase (+) or decrease (−) of the pretreatment control value","10 mg/kg daily oral, 2 wk",(+155) percent
same,"HDL-C, percent increase (+) or decrease (−) of the pretreatment control value","30 mg/kg daily oral, 1 wk",(+256) percent
same,"Insulin, percent increase (+) or decrease (−) of the pretreatment control value","30 mg/kg daily oral, 1 wk",(−35) percent
same,"NEFA, percent increase (+) or decrease (−) of the pretreatment control value","30 mg/kg daily oral, 1 wk",(−32) percent
same,"Non-HDL-C, percent increase (+) or decrease (−) of the pretreatment control value","30 mg/kg daily oral, 1 wk",(−48) percent
same,"TG, percent increase (+) or decrease (−) of the pretreatment control value","30 mg/kg daily oral, 1 wk",(−78) percent
same,"HDL-C, percent increase (+) or decrease (−) of the pretreatment control value","30 mg/kg daily oral, 2 wk",(+335) percent
same,"Insulin, percent increase (+) or decrease (−) of the pretreatment control value","30 mg/kg daily oral, 2 wk",(−21) percent
same,"NEFA, percent increase (+) or decrease (−) of the pretreatment control value","30 mg/kg daily oral, 2 wk",(−49) percent
same,"TG, percent increase (+) or decrease (−) of the pretreatment control value","30 mg/kg daily oral, 2 wk",(−52) percent
same,"Glucose, percent increase (+) or decrease (−) of the pretreatment control value","100 mg/kg daily oral, 1 wk",(−21) percent
same,"HDL-C, percent increase (+) or decrease (−) of the pretreatment control value","100 mg/kg daily oral, 1 wk",(+151) percent
same,"Insulin, percent increase (+) or decrease (−) of the pretreatment control value","100 mg/kg daily oral, 1 wk",(−46) percent
same,"NEFA, percent increase (+) or decrease (−) of the pretreatment control value","100 mg/kg daily oral, 1 wk",(−30) percent
same,"Non-HDL-C, percent increase (+) or decrease (−) of the pretreatment control value","100 mg/kg daily oral, 1 wk",(−92) percent
same,"TG, percent increase (+) or decrease (−) of the pretreatment control value","100 mg/kg daily oral, 1 wk",(−93) percent
same,"Glucose, percent increase (+) or decrease (−) of the pretreatment control value","100 mg/kg daily oral, 2 wk",(−10) percent
same,"HDL-C, percent increase (+) or decrease (−) of the pretreatment control value","100 mg/kg daily oral, 2 wk",(+213) percent
same,"Insulin, percent increase (+) or decrease (−) of the pretreatment control value","100 mg/kg daily oral, 2 wk",(−50) percent
same,"NEFA, percent increase (+) or decrease (−) of the pretreatment control value","100 mg/kg daily oral, 2 wk",(−52) percent
same,"Non-HDL-C, percent increase (+) or decrease (−) of the pretreatment control value","100 mg/kg daily oral, 2 wk",(−88) percent
same,"TG, percent increase (+) or decrease (−) of the pretreatment control value","100 mg/kg daily oral, 2 wk",(−92) percent
same,change in vivo at 100 mg/kg,"168 h, 100 mg/kg daily oral, 1 wk, read-out: HDL-Cholesterol, Percent Change from Pre-Treatment",72%
same,change in vivo at 100 mg/kg,"168 h, 100 mg/kg daily oral, 1 wk, read-out: NonHDL-Cholesterol, Percent Change from Pre-Treatment",-98%
same,change in vivo at 100 mg/kg,"168 h, 100 mg/kg daily oral, 1 wk, read-out: TG, Percent Change from Pre-Treatment",-93%
same,change in vivo at 100 mg/kg,"336 h, 100 mg/kg daily oral, 2 wk, read-out: HDL-Cholesterol, Percent Change from Pre-Treatment",168%
same,change in vivo at 100 mg/kg,"336 h, 100 mg/kg daily oral, 2 wk, read-out: NonHDL-Cholesterol, Percent Change from Pre-Treatment",-99%
same,change in vivo at 100 mg/kg,"336 h, 100 mg/kg daily oral, 2 wk, read-out: TG, Percent Change from Pre-Treatment",-94%
same,Glucose,"3 mg/kg daily oral, 1 wk",117 ± 4 mg/dL
same,HDL-C,"3 mg/kg daily oral, 1 wk",75 ± 6 mg/dL
same,NEFA,"3 mg/kg daily oral, 1 wk",1.1 ± 0.07
same,Non-HDL-C,"3 mg/kg daily oral, 1 wk",23 ± 2 mg/dL
same,TG,"3 mg/kg daily oral, 1 wk",995 ± 50^a mg/dl
same,Insulin,"3 mg/kg daily oral, 1 wk",10.0 ± 1.0 ng/mL
same,Glucose,"3 mg/kg daily oral, 2 wk",124 ± 4^a mg/dl
same,HDL-C,"3 mg/kg daily oral, 2 wk",77 ± 8 mg/dL
same,NEFA,"3 mg/kg daily oral, 2 wk",1.0 ± 0.10
same,Non-HDL-C,"3 mg/kg daily oral, 2 wk",25 ± 2 mg/dL
same,TG,"3 mg/kg daily oral, 2 wk",833 ± 57 mg/dL
same,Insulin,"3 mg/kg daily oral, 2 wk",7.3 ± 0.5 ng/mL
same,Glucose,"10 mg/kg daily oral, 1 wk",122 ± 3 mg/dL
same,HDL-C,"10 mg/kg daily oral, 1 wk",136 ± 11^a mg/dl
same,NEFA,"10 mg/kg daily oral, 1 wk",1.0 ± 0.07
same,Non-HDL-C,"10 mg/kg daily oral, 1 wk",22 ± 2 mg/dL
same,TG,"10 mg/kg daily oral, 1 wk",553 ± 35^a mg/dl
same,Insulin,"10 mg/kg daily oral, 1 wk",10.5 ± 1.1 ng/mL
same,Glucose,"10 mg/kg daily oral, 2 wk",125 ± 4 mg/dL
same,HDL-C,"10 mg/kg daily oral, 2 wk",138 ± 8^a mg/dl
same,NEFA,"10 mg/kg daily oral, 2 wk",0.95 ± 0.08
same,Non-HDL-C,"10 mg/kg daily oral, 2 wk",34 ± 3^a mg/dl
same,TG,"10 mg/kg daily oral, 2 wk",865 ± 69 mg/dL
same,Insulin,"10 mg/kg daily oral, 2 wk",9.1 ± 0.7 ng/mL
same,Glucose,"30 mg/kg daily oral, 1 wk",108 ± 4 mg/dL
same,HDL-C,"30 mg/kg daily oral, 1 wk",159 ± 12^a mg/dl
same,NEFA,"30 mg/kg daily oral, 1 wk",0.88 ± 0.06
same,Non-HDL-C,"30 mg/kg daily oral, 1 wk",14 ± 2^a mg/dl
same,TG,"30 mg/kg daily oral, 1 wk",213 ± 19^a mg/dl
same,Insulin,"30 mg/kg daily oral, 1 wk",6.4 ± 0.6^a ng/ml
same,Glucose,"30 mg/kg daily oral, 2 wk",130 ± 4 mg/dL
same,HDL-C,"30 mg/kg daily oral, 2 wk",208 ± 14^a mg/dl
same,NEFA,"30 mg/kg daily oral, 2 wk",0.66 ± 0.03
same,Non-HDL-C,"30 mg/kg daily oral, 2 wk",30 ± 2 mg/dL
same,TG,"30 mg/kg daily oral, 2 wk",475 ± 38^a mg/dl
same,Insulin,"30 mg/kg daily oral, 2 wk",7.7 ± 0.9^a ng/ml
same,Glucose,"100 mg/kg daily oral, 1 wk",92 ± 4^a mg/dl
same,HDL-C,"100 mg/kg daily oral, 1 wk",100 ± 8^a mg/dl
same,NEFA,"100 mg/kg daily oral, 1 wk",0.98 ± 0.08
same,Non-HDL-C,"100 mg/kg daily oral, 1 wk",2 ± 1^a mg/dl
same,TG,"100 mg/kg daily oral, 1 wk",69 ± 5^a mg/dl
same,Insulin,"100 mg/kg daily oral, 1 wk",6.4 ± 1.3^a ng/ml
same,Glucose,"100 mg/kg daily oral, 2 wk",105 ± 3^a mg/dl
same,HDL-C,"100 mg/kg daily oral, 2 wk",141 ± 12^a mg/dl
same,NEFA,"100 mg/kg daily oral, 2 wk",0.66 ± 0.08
same,Non-HDL-C,"100 mg/kg daily oral, 2 wk",3 ± 1^a mg/dl
same,TG,"100 mg/kg daily oral, 2 wk",78 ± 10^a mg/dl
same,Insulin,"100 mg/kg daily oral, 2 wk",6.0 ± 0.8^a ng/ml
